The text below walks through data of patent publication US12384746B2, “Physics-driven discovery of novel small therapeutic compounds for use as a BCL-2 inhibitor” (BAHCESEHIR UNIVERSITESI, priority 2020, dated 2025).

For this assay, the system named is HCT-116 cells. As to the kind of experiment: MTT cell proliferation assay on HCT-116 cells. Type of assay: cell-based. Here is the method: For cell culture experiments various cancer cell lines, HCT-116 colon cancer, U87-MG glial tumor, MCF7 breast cancer cell lines were used. Cells were seeded with high glucose DMEM medium (Biosera) supplemented with 10% FBS (Gibco) and 1× penicillin/streptomycin (Multicell). Twenty-four hours prior to molecule treatment, 10,000 cells were seeded into each well of 24-well cell culture plates. Molecules were used by preparing 4 mM stock solution in DMSO (Amresco). For molecule treatment, molecule stock solutions were diluted in DMEM with 10% FBS and added onto cells in each corresponding well. Final concentration of vehicle DMSO was 2% at maximum. […] We calculated the number of cells to be seeded to make sure that none of the cells reaches more than 60% confluency during the treatment period, as higher plate confluency levels would slow down cell proliferation independently from the molecule treatment.
Values of half-maximal inhibitory concentration were (IC50) determined by MTT cell proliferation assays. […] 570 nm absorbance values were recorded and IC50 values were calculated by dose response—inhibition curves and nonlinear regression analysis on GraphPad Prism 8 software. […] Following the initial incubation day, molecules were added and after incubation with MTT at 37° C. for 4 hours, formazan was solubilized with DMSO (Sigma-Aldrich, St. Louis, USA) and absorbance was measured at 570 nm. […]

Peptide text beside a SMILES is read from it. * marks the point of attachment. Boc = CC(C)(C)OC(=O)*

Take `CCC(C)C(NC(=O)C(Cc1c[nH]c2ccccc12)NC(=O)OC(C)(C)C)C(=O)NC(CC(C)C)C(N)=O` (stereo not drawn) [compound of formula I] (Boc-Trp-Ile-Leu-NH2; configuration not given here): the “proliferation of HCT-116 cells compared to vehicle group” value (HCT-116 cells, MTT assay, FIG. 1) is “reduced proliferation and apoptotic cell structures”. The IC50 (Homo sapiens, 72 h, HCT-116 colon cancer cells, single treatment, three days, 570 nm absorbance, read-out: IC50 (half-maximal inhibitory concentration), MTT cell proliferation) was 17 µM.
